The source of these data is patent EP1021178B1, “SELENOPHENE ANTI-TUMOR AGENTS” (Purdue Research Foundation, priority 1996, dated 1997).

Holding throughout (test): NCI human tumor cell panel
Holding throughout (type): cell-based

One assay deals with A498. The settings on record: A498, read-out: Log10 LC50 (converted).
The test system of a further assay is A549/ATCC. The note with it: A549, read-out: Log10 LC50 (converted).
The test system of a further assay is ACHN. The note with it: read-out: Log10 LC50 (converted).
For a further assay, the system named is CCRF-CEM. The note with it: read-out: Log10 LC50 (converted).
A further assay concerns HCC-2998. The settings on record: HCC 2998, read-out: Log10 LC50 (converted).
Another assay deals with HCT-116. The note with it: HCT-116, read-out: Log10 LC50 (converted).
Another assay has as its system HCT-15. The settings on record: HCT-15, read-out: Log10 LC50 (converted).
Another assay concerns HOP-62. The settings on record: HOP-62, read-out: Log10 LC50 (converted).
The test system of the next assay is HS 578T. The settings on record: read-out: Log10 LC50 (converted).
The next assay deals with K-562. The note with it: K562, read-out: Log10 LC50 (converted).
A further assay relates to LOX IMVI. The note with it: read-out: Log10 LC50 (converted).
A further assay concerns M14. The settings on record: M14, read-out: Log10 LC50 (converted).
In a further assay the test system is MOLT-4. The settings on record: MOLT-4, read-out: Log10 LC50 (converted).
A further assay deals with NCI-H322M. The settings on record: read-out: Log10 LC50 (converted).
The next assay deals with NCI-H460. The note with it: NCI-H460, read-out: Log10 LC50 (converted).
The next assay relates to OVCAR-4. The note with it: OVCAR-4, read-out: Log10 LC50 (converted).
A further assay concerns RPMI-8226. The settings on record: RPMI-8226, read-out: Log10 LC50 (converted).
The next assay relates to SF-539. The settings on record: SF-539, read-out: Log10 LC50 (converted).
The subject of another assay is SK-MEL-28. The note with it: SK-MEL-28, read-out: Log10 LC50 (converted).
Another assay has as its system SR. The note with it: read-out: Log10 LC50 (converted).
A further assay deals with U251. The note with it: U-251, read-out: Log10 LC50 (converted).
Another assay deals with UACC-62. The note with it: UACC-62, read-out: Log10 LC50 (converted).

The structures appear in SMILES notation.

As for `OCc1ccc(-c2ccc(-c3ccc(CO)[se]3)[se]2)[se]1`, the CC50 is 7.24 µM in the assay with A498; 53.7 µM in the assay on A549/ATCC; more than 100 µM in the assay with ACHN; more than 100 µM with CCRF-CEM; 12.6 µM in the assay on HCC-2998; more than 100 µM in the assay on HCT-116. Also, the CC50 in the assay on HCT-15 is 55 µM; in the assay on HOP-62, 57.5 µM; in the assay on HS 578T, 46.8 µM; with LOX IMVI, more than 100 µM; with M14 it was 49 µM; with MOLT-4, more than 100 µM. Further, the CC50 with OVCAR-4 is 49 µM; in the assay with RPMI-8226, more than 100 µM; with SF-539, 95.5 µM; with SK-MEL-28 it was more than 100 µM; in the assay with SR it was more than 100 µM; with U251, 50.1 µM. Besides, the CC50 in the assay on UACC-62 is 44.7 µM. Also, the LC50 with K-562 was 70.8 µM. Moreover, the results for the LC50 (concentration killing 50% of cells) with NCI-H322M and in the assay with NCI-H460 were 52.5 µM and 81.3 µM, respectively.
Take `OCc1ccc(-c2ccc(-c3ccc(CO)s3)[se]2)s1`: the CC50 in the assay on A498 was 0.158 µM; with A549/ATCC, more than 100 µM; in the assay with ACHN, more than 100 µM; with CCRF-CEM it was more than 100 µM; in the assay on HCC-2998 it was more than 100 µM; with HCT-116 it was more than 100 µM. The CC50 with HCT-15, in the assay on HOP-62, with HS 578T, with LOX IMVI, in the assay on M14 and with MOLT-4 was more than 100 µM throughout. Moreover, the CC50 in the assay on OVCAR-4, in the assay on RPMI-8226, in the assay on SF-539, with SK-MEL-28, with SR and in the assay with U251 was more than 100 µM throughout. Also, the CC50 in the assay with UACC-62 was more than 100 µM. For the same molecule, in the assay with K-562, the median lethal concentration (LC50) was more than 100 µM. Further, the LC50 (concentration killing 50% of cells) with NCI-H322M and in the assay on NCI-H460 was more than 100 µM throughout.
Turning to `OCc1ccc(-c2ccc(-c3ccc(CO)[se]3)s2)[se]1`, the CC50 is 0.0955 µM with A498; more than 100 µM in the assay on A549/ATCC; more than 100 µM in the assay on ACHN; more than 100 µM in the assay on CCRF-CEM; 2.45 µM in the assay on HCC-2998; more than 100 µM with HCT-116. The CC50 in the assay on HCT-15, in the assay with HOP-62, with HS 578T, in the assay on LOX IMVI, in the assay with M14 and in the assay with MOLT-4 was more than 100 µM in each case. The CC50 in the assay with OVCAR-4 is more than 100 µM; in the assay on RPMI-8226, more than 100 µM; in the assay with SF-539, more than 100 µM; with SK-MEL-28 it was more than 100 µM; with SR it was more than 100 µM; in the assay with U251 it was 46.8 µM. In addition, in the assay on UACC-62, the CC50 was more than 100 µM. The LC50 with K-562 is more than 100 µM. In addition, the LC50 (concentration killing 50% of cells) in the assay on NCI-H322M and in the assay on NCI-H460 was more than 100 µM throughout.
Take `OCc1ccc(-c2ccc(-c3cccs3)[se]2)s1`: the CC50 is 0.0661 µM with A498; more than 100 µM with A549/ATCC; more than 100 µM in the assay on ACHN; more than 100 µM in the assay on CCRF-CEM; 9.77 µM in the assay on HCC-2998; 2.95 µM with HCT-116. Moreover, the CC50 with HCT-15, with HOP-62, in the assay with HS 578T, with LOX IMVI, with M14 and with MOLT-4 was more than 100 µM throughout. Moreover, the CC50 in the assay on OVCAR-4, in the assay with RPMI-8226, in the assay with SF-539, in the assay with SK-MEL-28, with SR and in the assay on U251 was more than 100 µM throughout. The CC50 in the assay on UACC-62 was more than 100 µM. Also, the 50% lethal concentration (LC50) with K-562 is more than 100 µM. Also, the LC50 (concentration killing 50% of cells) in the assay with NCI-H322M and in the assay on NCI-H460 was more than 100 µM throughout.
For the molecule `O=Cc1ccc(-c2ccc(-c3ccc(C=O)[se]3)[se]2)[se]1`, the CC50 in the assay on A498 is 6.76 µM; in the assay with A549/ATCC, more than 100 µM; with ACHN it was more than 100 µM; in the assay on CCRF-CEM, more than 100 µM; with HCC-2998, more than 100 µM; in the assay with HCT-116, more than 100 µM. The CC50 with HCT-15, in the assay on HOP-62, in the assay with HS 578T, in the assay with LOX IMVI, in the assay on M14 and in the assay on MOLT-4 was more than 100 µM throughout. For the same molecule, the CC50 in the assay with OVCAR-4, in the assay on RPMI-8226, in the assay on SF-539, in the assay with SK-MEL-28, in the assay on SR and in the assay on U251 was more than 100 µM each time. In the assay with UACC-62, the CC50 is more than 100 µM. For the same molecule, in the assay on K-562, the 50% lethal concentration (LC50) was more than 100 µM. Further, the LC50 (concentration killing 50% of cells) in the assay with NCI-H322M and in the assay on NCI-H460 was more than 100 µM each time.
As to `O=Cc1ccc(-c2ccc(-c3cccs3)[se]2)s1`, the CC50 is 0.933 µM with A498; more than 100 µM in the assay on A549/ATCC; more than 100 µM in the assay on ACHN; more than 100 µM with CCRF-CEM; 20.9 µM in the assay on HCC-2998; more than 100 µM in the assay with HCT-116. For the same molecule, the CC50 in the assay with HCT-15, with HOP-62, in the assay on HS 578T, with LOX IMVI, with M14 and with MOLT-4 was more than 100 µM in each case. For the same molecule, the CC50 in the assay with OVCAR-4, with RPMI-8226, in the assay with SF-539, in the assay on SK-MEL-28, with SR and in the assay with U251 was more than 100 µM each time. Further, the CC50 with UACC-62 is 85.1 µM. The LC50 with K-562 was more than 100 µM. The LC50 (concentration killing 50% of cells) with NCI-H322M and in the assay on NCI-H460 was more than 100 µM throughout.
On to `O=Cc1ccc(-c2ccc(-c3ccc(C=O)s3)[se]2)s1`, for which the CC50 was 4.07 µM in the assay with A498; more than 100 µM with A549/ATCC; more than 100 µM in the assay on ACHN; more than 100 µM with CCRF-CEM; 74.1 µM in the assay on HCC-2998; more than 100 µM in the assay on HCT-116. The CC50 in the assay on HCT-15, with HOP-62, with HS 578T, with LOX IMVI, with M14 and with MOLT-4 was more than 100 µM throughout. For the same molecule, the CC50 in the assay on OVCAR-4 is more than 100 µM; in the assay with RPMI-8226 it was more than 100 µM; in the assay with SF-539 it was more than 100 µM; with SK-MEL-28 it was more than 100 µM; in the assay on SR it was more than 100 µM; in the assay with U251, 89.1 µM. Also, in the assay on UACC-62, the CC50 was more than 100 µM. Also, the LC50 with K-562 is more than 100 µM. Also, the LC50 (concentration killing 50% of cells) in the assay with NCI-H322M and in the assay on NCI-H460 was more than 100 µM throughout.

In general, LC50 refers to the concentration that kills 50% of the test population.
